From patent US20240400577A1, “MODULATORS OF PROTEIN KINASES” (VIBLIOME THERAPEUTICS, LLC, priority 2021, published 2024)
Each block holds one compound with its values, some of them ahead of it.

Legend:
Experiment in all cases: Kinase panel enzymatic inhibition assay (Nanosyn)
Format in all cases: biochemical
ITK = biological target: T1, ITK (Homo sapiens, UniProt Q08881); details: ATP at Km; 30-minute pre-incubation; read-out: kinase inhibition in terms of IC50, ITK
T1 construct: Nanosyn (contract laboratory that ran the panel)
T1 sequence (Q08881 1-620): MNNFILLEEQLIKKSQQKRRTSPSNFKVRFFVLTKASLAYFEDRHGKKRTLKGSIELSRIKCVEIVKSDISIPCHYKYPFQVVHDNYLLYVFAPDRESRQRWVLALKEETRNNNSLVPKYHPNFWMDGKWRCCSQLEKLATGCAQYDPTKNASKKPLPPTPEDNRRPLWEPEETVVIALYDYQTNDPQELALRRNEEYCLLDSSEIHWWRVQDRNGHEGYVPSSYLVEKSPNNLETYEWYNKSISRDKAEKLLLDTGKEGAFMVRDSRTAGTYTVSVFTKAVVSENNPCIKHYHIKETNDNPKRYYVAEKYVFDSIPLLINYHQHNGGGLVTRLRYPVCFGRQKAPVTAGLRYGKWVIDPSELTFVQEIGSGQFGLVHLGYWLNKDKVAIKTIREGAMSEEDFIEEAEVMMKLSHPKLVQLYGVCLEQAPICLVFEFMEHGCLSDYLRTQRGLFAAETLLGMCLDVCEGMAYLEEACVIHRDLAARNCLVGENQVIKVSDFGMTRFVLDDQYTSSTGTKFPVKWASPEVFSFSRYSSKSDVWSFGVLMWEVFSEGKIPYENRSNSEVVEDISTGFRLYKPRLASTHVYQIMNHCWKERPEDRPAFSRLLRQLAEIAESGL
Protocol: (§1) The disclosed compounds were tested for activity against a panel of at least 300 kinases. Kinase panel screening was conducted by Nanosyn (Santa Clara, CA 95051) using an enzymatic inhibition assay accepted as valid by those skilled in the art (e.g., the Caliper LabChip® mobility shift assay, an ADP detection assay, or time-resolved fluorescence detection technology. Compounds were screened at a concentration of 5 μM using an ATP concentration at the Km for each of the respective kinases and a 30-minute pre-incubation time-point.
(§2) In Table 1 and 2, kinase inhibition is classified by: A=95% or greater, B=90%-94%, C=80%-89%, and D=79% and less with a compound concentration of 5 JIM. In Table 3 and 4, kinase inhibition is reported in terms of IC50 values corresponding to A=less than 500 nm, B=500 nm to less than 1 μM, C=1 μM to less than 10 μM, and D=10 μM or greater using a compound concentration of 5 μM.

PAK1 = biological target: T2, PAK1 (Homo sapiens, UniProt Q13153); details: ATP at Km; 30-minute pre-incubation; read-out: kinase inhibition in terms of IC50, PAK1
T2 construct: Nanosyn (contract laboratory that ran the panel)
T2 sequence (Q13153 whole entry): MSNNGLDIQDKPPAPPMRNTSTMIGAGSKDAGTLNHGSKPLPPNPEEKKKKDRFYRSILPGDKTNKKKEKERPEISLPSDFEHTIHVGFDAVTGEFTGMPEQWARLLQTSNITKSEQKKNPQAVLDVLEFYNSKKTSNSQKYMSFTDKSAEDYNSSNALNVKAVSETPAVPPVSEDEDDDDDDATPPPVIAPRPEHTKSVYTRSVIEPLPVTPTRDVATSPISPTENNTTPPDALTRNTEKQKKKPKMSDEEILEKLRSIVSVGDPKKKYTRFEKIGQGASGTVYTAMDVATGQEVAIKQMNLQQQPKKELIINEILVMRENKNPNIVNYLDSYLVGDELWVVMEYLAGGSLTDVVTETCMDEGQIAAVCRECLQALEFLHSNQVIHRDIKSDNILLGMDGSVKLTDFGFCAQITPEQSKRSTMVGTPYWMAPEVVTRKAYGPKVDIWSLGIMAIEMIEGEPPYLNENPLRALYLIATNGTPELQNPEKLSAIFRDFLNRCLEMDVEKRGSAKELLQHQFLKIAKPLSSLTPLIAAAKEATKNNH
Protocol: as §1, §2

WEE1 = biological target: T3, WEE1 (Homo sapiens, UniProt P30291); details: ATP at Km; 30-minute pre-incubation; read-out: kinase inhibition in terms of IC50, WEE1
T3 construct: purchased Nanosyn
T3 sequence (P30291 whole entry): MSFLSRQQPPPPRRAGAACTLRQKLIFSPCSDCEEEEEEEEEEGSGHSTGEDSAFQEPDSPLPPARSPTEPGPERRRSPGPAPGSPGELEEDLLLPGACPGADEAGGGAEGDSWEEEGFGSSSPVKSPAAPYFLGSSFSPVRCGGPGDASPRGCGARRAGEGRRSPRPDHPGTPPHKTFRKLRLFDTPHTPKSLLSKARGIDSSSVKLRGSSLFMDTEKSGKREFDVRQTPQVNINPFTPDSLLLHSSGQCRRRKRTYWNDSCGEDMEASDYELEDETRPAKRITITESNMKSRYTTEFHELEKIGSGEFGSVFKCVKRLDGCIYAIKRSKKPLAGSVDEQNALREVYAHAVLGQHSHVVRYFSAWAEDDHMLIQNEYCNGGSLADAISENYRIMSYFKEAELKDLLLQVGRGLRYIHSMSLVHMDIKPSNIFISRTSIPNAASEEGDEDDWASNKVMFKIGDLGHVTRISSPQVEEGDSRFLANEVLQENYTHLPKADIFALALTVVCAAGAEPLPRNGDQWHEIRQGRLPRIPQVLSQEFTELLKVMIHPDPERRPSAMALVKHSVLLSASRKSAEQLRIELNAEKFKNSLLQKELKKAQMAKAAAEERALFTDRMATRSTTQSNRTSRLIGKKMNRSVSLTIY
Protocol: as §1, §2

PAK4 = biological target: T4, PAK4 (Homo sapiens, UniProt O96013); details: ATP at Km; 30-minute pre-incubation; read-out: kinase inhibition in terms of IC50, PAK4
T4 construct: Nanosyn (contract laboratory that ran the panel)
T4 sequence (O96013 whole entry): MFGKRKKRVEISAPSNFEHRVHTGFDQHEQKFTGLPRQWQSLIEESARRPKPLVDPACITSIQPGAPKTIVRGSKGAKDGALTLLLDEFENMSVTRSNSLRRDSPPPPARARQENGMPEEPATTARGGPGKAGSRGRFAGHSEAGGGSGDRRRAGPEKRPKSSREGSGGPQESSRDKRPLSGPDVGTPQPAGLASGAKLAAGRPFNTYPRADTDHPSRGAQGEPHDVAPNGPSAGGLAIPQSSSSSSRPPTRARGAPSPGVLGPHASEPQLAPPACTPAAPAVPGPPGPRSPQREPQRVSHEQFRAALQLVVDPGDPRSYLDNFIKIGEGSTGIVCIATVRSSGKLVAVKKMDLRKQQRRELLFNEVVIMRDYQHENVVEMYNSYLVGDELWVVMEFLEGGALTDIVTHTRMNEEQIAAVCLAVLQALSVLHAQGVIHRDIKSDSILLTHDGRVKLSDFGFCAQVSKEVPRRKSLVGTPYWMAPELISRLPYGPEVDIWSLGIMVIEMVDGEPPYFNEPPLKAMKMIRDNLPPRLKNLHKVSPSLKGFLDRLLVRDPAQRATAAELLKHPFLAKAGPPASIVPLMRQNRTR
Protocol: as §1, §2

PAK2 = biological target: T5, PAK2 (Homo sapiens, UniProt Q13177); details: ATP at Km; 30-minute pre-incubation; read-out: kinase inhibition in terms of IC50, PAK2
T5 construct: Nanosyn (contract laboratory that ran the panel)
T5 sequence (Q13177 whole entry): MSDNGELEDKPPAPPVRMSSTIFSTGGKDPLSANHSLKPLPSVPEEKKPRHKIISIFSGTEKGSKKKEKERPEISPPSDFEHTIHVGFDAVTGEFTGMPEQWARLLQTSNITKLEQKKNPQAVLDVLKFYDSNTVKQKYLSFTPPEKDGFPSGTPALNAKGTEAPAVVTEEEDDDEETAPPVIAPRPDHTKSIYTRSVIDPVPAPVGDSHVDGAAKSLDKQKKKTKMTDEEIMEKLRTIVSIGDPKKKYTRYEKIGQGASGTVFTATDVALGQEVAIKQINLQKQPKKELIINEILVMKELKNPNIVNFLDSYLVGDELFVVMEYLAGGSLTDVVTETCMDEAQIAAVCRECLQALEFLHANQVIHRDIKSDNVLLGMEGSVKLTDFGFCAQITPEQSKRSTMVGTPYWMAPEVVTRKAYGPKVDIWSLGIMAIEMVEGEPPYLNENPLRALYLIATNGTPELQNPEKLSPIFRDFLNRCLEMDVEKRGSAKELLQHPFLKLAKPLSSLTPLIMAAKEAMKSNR
Protocol: as §1, §2

JAK3 = biological target: T6, JAK3 (Homo sapiens, UniProt P52333); details: ATP at Km; 30-minute pre-incubation; read-out: kinase inhibition in terms of IC50, JAK3
T6 construct: Nanosyn (contract laboratory that ran the panel)
T6 sequence (P52333 1-1124): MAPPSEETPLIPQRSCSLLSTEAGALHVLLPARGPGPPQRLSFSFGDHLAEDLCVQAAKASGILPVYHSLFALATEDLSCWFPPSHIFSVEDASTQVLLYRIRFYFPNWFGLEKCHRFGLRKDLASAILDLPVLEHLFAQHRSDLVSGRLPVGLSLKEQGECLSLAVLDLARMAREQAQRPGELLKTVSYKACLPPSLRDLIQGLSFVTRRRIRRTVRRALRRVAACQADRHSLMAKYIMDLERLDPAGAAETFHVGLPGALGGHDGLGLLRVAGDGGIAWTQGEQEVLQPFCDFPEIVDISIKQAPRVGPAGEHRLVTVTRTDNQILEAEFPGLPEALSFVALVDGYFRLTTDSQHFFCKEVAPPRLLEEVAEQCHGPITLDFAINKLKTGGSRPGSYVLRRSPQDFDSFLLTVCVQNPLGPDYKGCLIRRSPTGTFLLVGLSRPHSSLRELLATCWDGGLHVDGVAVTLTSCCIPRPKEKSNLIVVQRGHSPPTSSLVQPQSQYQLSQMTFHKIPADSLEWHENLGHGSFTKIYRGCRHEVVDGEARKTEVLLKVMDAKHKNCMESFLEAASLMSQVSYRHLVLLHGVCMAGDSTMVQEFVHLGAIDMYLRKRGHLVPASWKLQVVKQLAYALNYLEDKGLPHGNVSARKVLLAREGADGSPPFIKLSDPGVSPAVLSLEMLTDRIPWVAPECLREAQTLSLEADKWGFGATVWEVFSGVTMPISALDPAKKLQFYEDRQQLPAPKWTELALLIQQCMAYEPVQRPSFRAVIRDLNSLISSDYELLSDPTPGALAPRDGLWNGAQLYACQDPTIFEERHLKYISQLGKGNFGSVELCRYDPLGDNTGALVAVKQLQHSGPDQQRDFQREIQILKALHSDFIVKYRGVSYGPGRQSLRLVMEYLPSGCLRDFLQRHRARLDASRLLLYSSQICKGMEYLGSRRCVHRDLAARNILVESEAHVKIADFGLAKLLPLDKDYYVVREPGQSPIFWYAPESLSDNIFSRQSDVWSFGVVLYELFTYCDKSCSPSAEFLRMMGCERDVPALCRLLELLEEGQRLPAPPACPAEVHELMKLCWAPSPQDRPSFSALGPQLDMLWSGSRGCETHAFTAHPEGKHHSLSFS
Protocol: as §1, §2

TYK2 = biological target: T7, TYK2 (Homo sapiens, UniProt P29597); details: ATP at Km; 30-minute pre-incubation; read-out: kinase inhibition in terms of IC50, TYK2
T7 construct: purchased Nanosyn
T7 sequence (P29597 whole entry): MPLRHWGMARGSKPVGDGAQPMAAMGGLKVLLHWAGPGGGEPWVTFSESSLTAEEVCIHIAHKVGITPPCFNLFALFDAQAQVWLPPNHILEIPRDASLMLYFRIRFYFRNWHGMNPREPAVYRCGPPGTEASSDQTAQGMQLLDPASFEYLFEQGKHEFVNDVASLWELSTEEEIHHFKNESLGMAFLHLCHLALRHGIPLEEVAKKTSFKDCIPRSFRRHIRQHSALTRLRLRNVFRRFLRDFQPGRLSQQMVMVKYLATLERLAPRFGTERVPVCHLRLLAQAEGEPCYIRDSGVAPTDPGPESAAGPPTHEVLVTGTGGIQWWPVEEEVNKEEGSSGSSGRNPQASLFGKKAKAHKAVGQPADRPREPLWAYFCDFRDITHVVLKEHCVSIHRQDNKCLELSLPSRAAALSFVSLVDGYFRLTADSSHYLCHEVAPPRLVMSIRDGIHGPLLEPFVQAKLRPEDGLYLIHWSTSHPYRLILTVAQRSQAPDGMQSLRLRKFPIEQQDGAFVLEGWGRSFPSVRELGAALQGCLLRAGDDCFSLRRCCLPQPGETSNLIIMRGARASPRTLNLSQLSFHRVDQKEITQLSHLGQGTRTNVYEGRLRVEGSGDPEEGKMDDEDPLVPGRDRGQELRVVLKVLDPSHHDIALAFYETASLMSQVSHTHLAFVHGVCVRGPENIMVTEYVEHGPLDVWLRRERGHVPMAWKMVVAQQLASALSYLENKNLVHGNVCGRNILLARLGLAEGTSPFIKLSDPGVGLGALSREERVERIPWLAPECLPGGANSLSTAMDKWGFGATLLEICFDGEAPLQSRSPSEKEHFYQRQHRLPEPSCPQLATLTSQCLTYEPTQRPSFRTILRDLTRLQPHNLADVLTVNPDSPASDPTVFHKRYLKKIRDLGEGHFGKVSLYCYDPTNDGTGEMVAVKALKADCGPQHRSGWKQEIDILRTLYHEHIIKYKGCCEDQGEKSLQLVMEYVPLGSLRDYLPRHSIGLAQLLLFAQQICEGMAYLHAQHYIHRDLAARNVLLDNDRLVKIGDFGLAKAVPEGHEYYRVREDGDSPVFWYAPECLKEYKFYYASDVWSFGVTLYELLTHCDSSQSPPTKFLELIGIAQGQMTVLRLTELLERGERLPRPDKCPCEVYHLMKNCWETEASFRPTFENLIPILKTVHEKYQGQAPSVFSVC
Protocol: as §1, §2

IC50 (ITK): ≥ 10 µM
SMILES: Cc1ccc(NC(=O)c2ccn(-c3ccc(F)cc3)n2)cc1Nc1nccc(-c2cccnc2)n1 [Ex75, 1-(4-fluorophenyl)-N-(4-methyl-3-((4-(pyridin-3-yl)pyrimidin-2-yl)amino)phenyl)-1H-pyrazole-3-carboxamide]

IC50 (PAK1): ≥ 10 µM
IC50 (WEE1): ≥ 10 µM
IC50 (PAK4): 1 to 10 µM
IC50 (PAK2): ≥ 10 µM
SMILES: CNc1ncc2cc(-c3cc(NC(=O)c4cc(S(C)(=O)=O)n(-c5ccc(F)cc5)n4)ccc3Cl)c(=O)n(C)c2n1 [Ex76, N-(4-chloro-3-(8-methyl-2-(methylamino)-7-oxo-7,8-dihydropyrido[2,3-d]pyrimidin-6-yl)phenyl)-1-(4-fluorophenyl)-5-(methylsulfonyl)-1H-pyrazole-3-carboxamide]

IC50 (PAK1): ≥ 10 µM
IC50 (PAK2): ≥ 10 µM
SMILES: CNc1ncc2cc(-c3cc(NC(=O)c4ccn(-c5ccc(F)cc5)n4)c(F)cc3C)c(C)nc2n1 [Ex85, N-(2-fluoro-4-methyl-5-(7-methyl-2-(methylamino)pyrido[2,3-d]pyrimidin-6-yl)phenyl)-1-(4-fluorophenyl)-1H-pyrazole-3-carboxamide]

IC50 (JAK3): ≥ 10 µM
IC50 (TYK2): ≥ 10 µM
SMILES: Cc1cnc2[nH]cc(Cc3ccc(NC(=O)c4cc(S(C)(=O)=O)n(-c5ccc(F)cc5)n4)nc3F)c2c1 [Ex87, N-(6-fluoro-5-((5-methyl-1H-pyrrolo[2,3-b]pyridin-3-yl)methyl)pyridin-2-yl)-1-(4-fluorophenyl)-5-(methylsulfonyl)-1H-pyrazole-3-carboxamide]
